Data on nine compounds can be found in US5422341A, “Motilin-like polypeptides with gastrointestinal motor stimulating activity” (Ohmeda Pharmaceutical Products Division Inc., priority 1993, dated 1995).

Data set [1] has as its target segments of rabbit duodenum (Oryctolagus cuniculus, UniProt G1T803). Kind of data set: Rabbit duodenal smooth muscle strip tissue bath assay. It counts as cell-based. The following applies: negative logarithm of the dose giving 50% of the maximal response to motilin; isotonic contraction of rabbit duodenum segments. The gist of the method: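 Isotonic contraction of rabbit duodenal segments after 1 h equilibration and 10^-4 M acetylcholine challenge; cumulative compound curve over 10^-11 to 10^-4 M, then 10^-7 M motilin. Runs discarded if final acetylcholine response differed >5%. EC50 at 50% of maximal motilin response, reported as pEC50.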

Data set [2] concerns the target T1, motilin receptor (Oryctolagus cuniculus, UniProt G1T803).
T1 construct: from tissue; host or cells: rabbit antral smooth muscle membranes
Briefly: Determination of motilin receptor binding affinity (displacement of [125I-Tyr7, Nle13]motilin(porcine)). Also on record: species or system rabbit. How it is done:
The motilin receptor binding affinity of the peptides of this invention was determined by using the general procedure of Bormans, Peelers and Vantrappen, Regul. […] Fitting was performed using the iterative least-squares procedure of the SAS-software package (SAS Institute, Inc., Cary, N.C., USA).

The subject of data set [3] is canine gastrointestinal tract. Kind of data set: Contractile activity in the canine gastrointestinal tract. The settings on record: anesthetized dogs, intra-arterial injection to a duodenal segment; amount giving 50% of the calibration response to field stimulation. It counts as in vivo, dog. How it is done: Mongrel dogs of either sex were anesthetized with sodium pentobarbital 65 mg/kg intravenously. A mid-line incision was made in the abdomen. A duodenal segment was located, the terminal arteries to that segment were identified, and the closest possible artery of the appropriate size was rubbed clean of fat and fascia. A needle of suitable diameter was bent at an angle and the tip inserted in the cleaned artery. The needle was held in position in the artery for approximately 30 seconds until vascular spasm has relaxed and then a catheter assembly was inserted into the artery and tied into position with 000 silk sutures. The fine polyethylene catheter (10-15 cm) was cut to a point at one end with a needle inserted at the other end. The hub of the needle was fitted with a 3-way stopcock and the catheter assembly was filled with heparinized Krebs Ringer bicarbonate containing 10 mM glucose. A bolus of Krebs (free of air) was injected into the arterial catheter and the distribution of blanching in the segment noted. If the area was too large, collateral arteries may be tied off as long as circulation to the area was maintained. A Bass type strain gauge was then sutured to the serosa, and oriented so that circular muscle contractions can be recorded on a Beckman R611 dynograph. Silver wire electrodes were inserted subserosally on either side of the strain gauge and were connected through stimulus isolation units to a Grass S88 electrical stimulator. Electrical field stimulation was applied at 40 V 0.5 ms and 5 pps and the amplitude of the pen recorder was set to contain the contractile response.
All peptides to be injected were dissolved in Krebs and serial dilutions were prepared so that for any concentration the maximum volume to be injected was 1 ml. All solutions except stock Krebs were held on ice for the day of the experiment and discarded at the end of the day. For determination of a dose-response curve, the site was first injected with a bolus of approximately 1 ml of heparinized Krebs to provide a flush control. Peptide agonists (in volumes of 1 ml flushed with 1 ml of Krebs) were injected in logarithmic increments until a response which was maximal in amplitude was obtained. The injection site was then flushed with Krebs containing 0.1% BSA to displace any peptide remaining in the arterial line. For peptides acting at the motilin receptor, care was taken not to inject supramaximal doses as these will induce tachyphylaxis. Therefore, as responses become apparent, 0.3 or 0.5 log unit increments were used. A site was used for a dose-response determination only every 1/2 to 1 hour.
The amplitude of the calibration response to field stimulation in each site was measured and used as 100% for that site. The amplitude of the response to the agonist at each dose was determined, calculated as a % of the calibration response and plotted against the concentration. The ED50 of the response represents the amount of agonist required to produce a response which was 50% of the calibration response.

Data set [4] is classed as in vitro ADME, hog. The following applies: pH 7. The procedure:
Like most small linear polypeptides, motilin is believed to be metabolized lo by the brush border cells of the kidney. Therefore, kidney homogenate was chosen as the model system for assessing the relative in vivo biostability of the peptides of this invention. All peptides to be studied were incubated in hog kidney (Pel Freeze, Inc., Rogers, Ark.) (2% w/v; final volume=4 ml; buffer=HEPES pH 7.0) at 25° C. Both initial substrate concentration and internal standard (Fmoc-Gly) concentration were 0.5 mg/ml. In order to determine suitable incubation times and sampling intervals, two experiments were conducted with each polypeptide. The first run served as a rough estimate of peptide stability. All sampling was performed in duplicate. Sample volume was 180 μl.
Sample clean-up was performed by addition of 20 μl of 100% TCA (final volume=200 μl; final TCA concentration=10%). The sample was vortexed for from 5 to 10 seconds to ensure equilibration, then centrifuged to spin out the precipitated proteins. Analysis was carried out on a Waters HPLC system with a WISP autoinjector, a 5μ Vydac C-18 analytical column, and a Waters 481 UV detector set at 214 nm. Injection volume was 80 μl. Initial solvent conditions were […] in Milli-Q water with a 35 minute gradient running to 63% acetonitrile/37% (0.1%) TFA at 1 ml/min.
Polypeptide substrate and metabolite peaks were ratioed to the internal standard and the duplicate sample ratios were averaged. The avenge ratio for the peptide substrate was expressed as a percentage and plotted versus time. First-order kinetics was assumed for data treatment. The rate of disappearance of the substrate was calculated using the Enzfitter program (Biosoft). Relative half-lives were determined from the relationship: […]

Where [5] appears, read: negative logarithm of the concentration displacing 50% of [125I-Tyr7, Nle13]motilin(porcine) from rabbit antral smooth muscle membranes, read-out: pIC50 (converted).

Read-outs that look alike come from different tables or passages of the source. Square brackets hold non-standard residues; d marks the D form. Peptide text beside a SMILES is read from it. * marks the point of attachment. X1 = C[N+](C)(C)[C@@H](Cc1ccccc1)C(=O)*; NMe2Phe = CN(C)[C@@H](Cc1ccccc1)C(=O)*; NMeF = CN[C@@H](Cc1ccccc1)C(=O)O

Chain of segments of rabbit duodenum (G1T803 1-400): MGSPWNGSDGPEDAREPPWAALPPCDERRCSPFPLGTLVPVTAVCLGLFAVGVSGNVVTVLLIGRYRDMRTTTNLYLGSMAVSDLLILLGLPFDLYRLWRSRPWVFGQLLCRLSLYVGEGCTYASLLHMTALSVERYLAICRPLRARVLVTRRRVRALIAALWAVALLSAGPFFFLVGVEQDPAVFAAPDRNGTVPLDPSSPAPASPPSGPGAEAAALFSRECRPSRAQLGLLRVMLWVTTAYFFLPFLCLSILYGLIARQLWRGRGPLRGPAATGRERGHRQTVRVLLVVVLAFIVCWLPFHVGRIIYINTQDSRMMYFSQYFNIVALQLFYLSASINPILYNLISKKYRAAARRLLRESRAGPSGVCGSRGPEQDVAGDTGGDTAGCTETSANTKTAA
T1 sequence (G1T803 1-400): as above

With `CC[C@H](C)[C@H](NC(=O)[C@@H]1CCCN1C(=O)[C@@H](NC(=O)[C@H](Cc1ccccc1)NC)C(C)C)C(=O)N[C@@H](Cc1ccccc1)C(=O)N[C@H](C(=O)N[C@@H](Cc1ccc(O)cc1)C(=O)NCC(=O)N[C@@H](CCC(=O)O)C(=O)N[C@@H](CC(C)C)C(=O)N[C@@H](C)C(=O)N[C@H](CCCNC(=N)N)C(=O)N[C@@H](CC(C)C)C(=O)N[C@@H](CCCCN)C(N)=O)[C@@H](C)O` (H-[NMeF]VPIFTYGELA[dR]LK-NH2), the negative-log EC50 (pEC50) in data set [1] amounted to 8.01. The IC50 in data set [2] (setting [5]) was 0.468 nM. Further, the ED50 in data set [3] came to 0.30 nmol. Also, the T1/2 in data set [4] is recorded as 34.3.

As to `CC[C@H](C)[C@H](NC(=O)[C@@H]1CCCN1C(=O)[C@@H](NC(=O)[C@H](Cc1ccccc1)NC)C(C)C)C(=O)N[C@@H](Cc1ccccc1)C(=O)N[C@H](C(=O)N[C@@H](Cc1ccc(O)cc1)C(=O)NCC(=O)N[C@@H](CCC(=O)O)C(=O)N[C@@H](CC(C)C)C(=O)N[C@@H](C)C(=O)N[C@H](CCCNC(=N)N)C(=O)N[C@@H](CC(C)C)C(=O)N[C@H](CCC(N)=O)C(N)=O)[C@@H](C)O` (H-[NMeF]VPIFTYGELA[dR]L[dQ]-NH2), the negative-log EC50 (pEC50) in data set [1] was determined as 7.97. For the same compound, in data set [2] (setting [5]), the IC50 was 0.851 nM. This compound had an ED50 in data set [3] of 0.40 nmol. In data set [4], this compound returned a T1/2 of 32.6.

For the compound `CC[C@H](C)[C@H](NC(=O)[C@@H]1CCCN1C(=O)[C@@H](NC(=O)[C@H](Cc1ccccc1)NC)C(C)C)C(=O)N[C@@H](Cc1ccccc1)C(=O)N[C@H](C(=O)N[C@@H](Cc1ccc(O)cc1)C(=O)NCC(=O)N[C@@H](CCC(=O)O)C(=O)N[C@@H](CC(C)C)C(=O)N[C@@H](CCC(N)=O)C(=O)N[C@@H](CCCNC(=N)N)C(=O)N[C@@H](CC(C)C)C(=O)N[C@@H](CCCCN)C(N)=O)[C@@H](C)O` (H-[NMeF]VPIFTYGELQRLK-NH2), the pEC50 in data set [1] was 7.74. Moreover, the IC50 in data set [2] (setting [5]) is 0.479 nM. The compound further showed an ED50 in data set [3] of 0.025 nmol. The same compound had a T1/2 in data set [4] of 20.

In data set [1], `CC[C@H](C)[C@H](NC(=O)[C@@H]1CCCN1C(=O)[C@@H](NC(=O)[C@H](Cc1ccccc1)N(C)C)C(C)C)C(=O)N[C@@H](Cc1ccccc1)C(=O)N[C@H](C(=O)N[C@@H](Cc1ccc(O)cc1)C(=O)NCC(=O)N[C@@H](CCC(=O)O)C(=O)N[C@@H](CC(C)C)C(=O)N[C@@H](C)C(=O)N[C@H](CCCNC(=N)N)C(=O)N[C@@H](CC(C)C)C(=O)N[C@H](CCCCN)C(N)=O)[C@@H](C)O` (NMe2Phe-VPIFTYGELA[dR]L[dK]-NH2) returned a pEC50 of 7.69. Also, the IC50 in data set [2] (setting [5]) was 1.45 nM. The compound also showed an ED50 in data set [3] of 0.35 nmol. The same compound registered a T1/2 in data set [4] of 47.

Turning to `CC[C@H](C)[C@H](NC(=O)[C@@H]1CCCN1C(=O)[C@@H](NC(=O)[C@H](Cc1ccccc1)[N+](C)(C)C)C(C)C)C(=O)N[C@@H](Cc1ccccc1)C(=O)N[C@H](C(=O)N[C@@H](Cc1ccc(O)cc1)C(=O)NCC(=O)N[C@@H](CCC(=O)O)C(=O)N[C@@H](CC(C)C)C(=O)N[C@@H](C)C(=O)N[C@H](CCCNC(=N)N)C(=O)N[C@@H](CC(C)C)C(=O)N[C@@H](CCCCN)C(N)=O)[C@@H](C)O` (X1-VPIFTYGELA[dR]LK-NH2), the pEC50 in data set [1] was 7.64. In data set [2] (setting [5]), the IC50 was 1.29 nM. This compound also had an ED50 in data set [3] of 0.12 nmol. In addition, the T1/2 in data set [4] was 125.

In turn, `CC[C@H](C)[C@H](NC(=O)[C@@H]1CCCN1C(=O)[C@@H](NC(=O)[C@H](Cc1ccccc1)[N+](C)(C)C)C(C)C)C(=O)N[C@@H](Cc1ccccc1)C(=O)N[C@H](C(=O)N[C@@H](Cc1ccc(O)cc1)C(=O)NCC(=O)N[C@@H](CCC(=O)O)C(=O)N[C@@H](CC(C)C)C(=O)N[C@@H](C)C(=O)N[C@H](CCCNC(=N)N)C(=O)N[C@@H](CC(C)C)C(=O)N[C@@H](CCC(N)=O)C(N)=O)[C@@H](C)O` (X1-VPIFTYGELA[dR]LQ-NH2) gave an ED50 in data set [3] of 0.026 nmol. The compound further yielded a T1/2 in data set [4] of 131.9.

As to `CC[C@H](C)[C@H](NC(=O)[C@@H]1CCCN1C(=O)[C@@H](NC(=O)[C@H](Cc1ccccc1)[N+](C)(C)C)C(C)C)C(=O)N[C@@H](Cc1ccccc1)C(=O)N[C@H](C(=O)N[C@@H](Cc1ccc(O)cc1)C(=O)NCC(=O)N[C@@H](CCC(=O)O)C(=O)N[C@@H](CC(C)C)C(=O)N[C@@H](CCC(N)=O)C(=O)N[C@H](CCCNC(=N)N)C(=O)N[C@@H](CC(C)C)C(=O)N[C@@H](CCCCN)C(N)=O)[C@@H](C)O` (X1-VPIFTYGELQ[dR]LK-NH2), in data set [1], the pEC50 is 7.60. For the same compound, in data set [2] (setting [5]), the IC50 was 1.17 nM. The compound further showed an ED50 in data set [3] of 0.15 nmol. Also, the T1/2 in data set [4] was found to be 162.

Compound `CC[C@H](C)[C@H](NC(=O)[C@@H]1CCCN1C(=O)[C@@H](NC(=O)[C@H](Cc1ccccc1)[N+](C)(C)C)C(C)C)C(=O)N[C@@H](Cc1ccccc1)C(=O)N[C@H](C(=O)N[C@@H](Cc1ccc(O)cc1)C(=O)NCC(=O)N[C@@H](CCC(=O)O)C(=O)N[C@@H](CC(C)C)C(=O)N[C@@H](CCC(N)=O)C(=O)N[C@H](CCCNC(=N)N)C(=O)N[C@@H](CC(C)C)C(=O)N[C@@H](CCC(N)=O)C(N)=O)[C@@H](C)O` (X1-VPIFTYGELQ[dR]LQ-NH2) registered an ED50 in data set [3] of 0.017 nmol. The T1/2 in data set [4] is recorded as 95.

On to `CC[C@H](C)[C@H](NC(=O)[C@@H]1CCCN1C(=O)[C@@H](NC(=O)[C@@H](N)Cc1ccccc1)C(C)C)C(=O)N[C@@H](Cc1ccccc1)C(=O)N[C@H](C(=O)N[C@@H](Cc1ccc(O)cc1)C(=O)NCC(=O)N[C@@H](CCC(=O)O)C(=O)N[C@@H](CC(C)C)C(=O)N[C@@H](CCC(N)=O)C(=O)N[C@@H](CCCNC(=N)N)C(=O)N[C@@H](CC(C)C)C(=O)N[C@@H](CCC(N)=O)C(=O)N[C@@H](CCC(=O)O)C(=O)N[C@@H](CCCCN)C(=O)N[C@@H](CCC(=O)O)C(=O)N[C@@H](CCCNC(=N)N)C(=O)N[C@@H](CC(N)=O)C(=O)N[C@@H](CCCCN)C(=O)NCC(=O)N[C@@H](CCC(N)=O)C(=O)O)[C@@H](C)O` [[Leu^13]pMOT(1-22), reference compound], for which, in data set [1], the pEC50 was 8.13. In data set [2] (pIC50, negative logarithm of the concentration displacing 50% of [125I-Tyr7, Nle13]motilin(porcine) from rabbit antral smooth muscle membranes), the IC50 is 0.661 nM. The ED50 in data set [3] is 0.17 nmol. Moreover, the T1/2 in data set [4] is 30.2.
